Reference: patent US8283348B2, “1-benzyl-3-hydroxymethylindazole derivatives and use thereof in the treatment of diseases based on the expression of MCP-1, CX3CR1 and p40” (Aziende Chimiche Riunite Angelini Francesco A.C.R.A.F. …, priority 2008, dated 2012)
Each block holds one molecule with its values, some of them ahead of it.

Experiments:
human MCP-1 = experiment: Gene expression of MCP-1 in LPS-stimulated MonoMac6 cells (real-time RT-PCR); assay type: cell-based; settings: MONO-MAC-6, MCP-1 mRNA, 1 h preincubation, LPS 100 ng/ml 4 h; for inhibition at 300 µM: MonoMac6, compound 300 μM (maximum soluble concentration); for inhibition at 150 µM: MonoMac6, compound 150 μM (maximum soluble concentration); for inhibition at 75 µM: MonoMac6, compound 75 μM (maximum soluble concentration)
Experimental: (§1) The capacity of the compounds to inhibit the expression of MCP-1 by lipopolysaccharide (LPS)-stimulated MonoMac6 cells was evaluated. The cells were placed in 96-well plates at a concentration of 50 000 cells/well. The compounds were tested at the maximum soluble concentration given in Table 1 (in the range 30-300 μM) and incubated for 1 hour. The cells were then stimulated with LPS (100 ng/ml) for 4 hours.
(§2) The total RNA was extracted from the cell pellet using the RNeasy mini kit (Qiagen), reverse-transcribed with the TaqMan Reverse transcription reagents synthesis kit (Applied Biosystems) and the cDNA obtained was used for the real-time PCR reaction. The amplification was obtained in 96-well plates using the ABI Prism 7000 sequence detection system (Applied Biosystems), by applying the following temperature profile: 50° C. for 2 minutes, 95° C. for 10 minutes and 45 cycles at 95° C. for 15 seconds and 60° C. for 1 minute. For the amplification, a set of primers and probe specific for human MCP-1 was used (Applied Biosystems, RefSeq NM_002982.3). A set of primers and probe for β-actin was used in separate wells as an internal control of the samples for the purposes of normalization. Once the reaction had taken place, the fluorescence data were analysed using the ABI Prism 7000 SDS software, by calculating the threshold cycle (Ct) for each sample and subsequently performing a relative quantification via the ΔΔCt method.
The results obtained, expressed as a percentage of inhibition, are collated in Table 1 below.

MCP-1 = experiment: Production of MCP-1 protein by LPS-stimulated MonoMac6 cells (ELISA); assay type: cell-based; settings: Homo sapiens, MONO-MAC-6, MCP-1 protein in supernatant (ELISA), LPS 100 ng/ml 20 h; for inhibition at 300 µM: MonoMac6, compound 300 μM (maximum soluble concentration); for inhibition at 150 µM: MonoMac6, compound 150 μM (maximum soluble concentration); for inhibition at 75 µM: MonoMac6, compound 75 μM (maximum soluble concentration); for inhibition at 30 µM: MonoMac6, compound 30 μM (maximum soluble concentration)
Experimental: as §1, with “expression of the protein MCP-1 by” for “expression of MCP-1 by”, “in Table 2 (in the” for “in Table 1 (in the”, “ng/ml) for 20 hours.” for “ng/ml) for 4 hours.”
The amount of MCP-1 produced was measured in the supernatants, suitably diluted with buffer, by means of an immunoenzymatic test (ELISA) using a commercial kit (ELISA MCP-1/JE, R&D Systems).
The results obtained, expressed as a percentage of inhibition, are collated in Table 2 below.

human CX3CR1 = experiment: Gene expression of CX3CR1 in LPS-stimulated MonoMac6 cells (real-time RT-PCR); assay type: cell-based; settings: MONO-MAC-6, CX3CR1 mRNA, LPS 100 ng/ml 20 h; for inhibition at 300 µM: MonoMac6, compound 300 μM (maximum soluble concentration); for inhibition at 150 µM: MonoMac6, compound 150 μM (maximum soluble concentration); for inhibition at 75 µM: MonoMac6, compound 75 μM (maximum soluble concentration)
Experimental: as §2, with “The capacity of the compounds to inhibit the expression of CX3CR1 by lipopolysaccharide (LPS)-stimulated MonoMac6 cells was evaluated. The cells were placed in 96-well plates at a concentration of 50 000 cells/well. The compounds were tested at the maximum soluble concentration given in Table 3 (in the range 30-300 μM) and incubated for 1 hour. The cells were then stimulated with LPS (100 ng/ml) for 20 hours. The total” for “The total”, “for human CX3CR1 was used” for “for human MCP-1 was used”, “Biosystems, RefSeq NM_001337.3). A set” for “Biosystems, RefSeq NM_002982.3). A set”, “ΔΔCt method. The results obtained, expressed as a percentage of inhibition, are collated in Table 3 below.” for “ΔΔCt method.”

human p40 = experiment: Gene expression of p40 in LPS-stimulated MonoMac6 cells (real-time RT-PCR); assay type: cell-based; settings: MONO-MAC-6, p40 mRNA, LPS 100 ng/ml 4 h; for inhibition at 150 µM: MonoMac6, compound 150 μM (maximum soluble concentration); for inhibition at 75 µM: MonoMac6, compound 75 μM (maximum soluble concentration)
Experimental: as §1, with “of p40” for “of MCP-1”, “Table 4” for “Table 1”
as §2, with “p40” for “MCP-1”, “NM_002187.2).” for “NM_002982.3).”
The results obtained, expressed as a percentage of inhibition, are collated in Table 4 below.

[1] = MonoMac6, compound 30 μM (maximum soluble concentration)

melting point: 92 to 93 °C
SMILES: CC(C)(OCc1nn(Cc2ccccc2)c2ccccc12)C(=O)NN [Compound 11, 2-[(1-benzyl-1H-indazol-3-yl)methoxy]-2-methylpropanohydrazide]
inhibition at 150 µM (human MCP-1): 68%
inhibition at 150 µM (MCP-1): 79%
inhibition at 150 µM (human CX3CR1): 90%
inhibition at 150 µM (human p40): 44%

melting point: 111 to 112 °C
SMILES: CC(C)(OCc1nn(Cc2ccccc2)c2ccccc12)C(N)=O [Compound 9, 2-[(1-benzyl-1H-indazol-3-yl)methoxy]-2-methylpropanamide]
inhibition at 300 µM (human MCP-1): 99%
inhibition at 300 µM (MCP-1): 98%
inhibition at 300 µM (human CX3CR1): 99%
inhibition at 300 µM (human p40; MonoMac6, compound 300 μM (maximum soluble concentration)): 96%

melting point: 115 to 116 °C
SMILES: CC(C)(OCc1nn(Cc2ccccc2)c2ccccc12)C(=O)NO [Compound 10, 2-[(1-benzyl-1H-indazol-3-yl)methoxy]-N-hydroxy-2-methylpropanamide]
inhibition at 150 µM (human MCP-1): 61%
inhibition at 150 µM (MCP-1): 91%
inhibition at 150 µM (human CX3CR1): 95%
inhibition at 150 µM (human p40): 54%

melting point: 124 to 125 °C
SMILES: CC(C)(OCc1nn(Cc2ccccc2)c2ccccc12)C(=O)NNc1ccccc1 [Compound 27, 2-[(1-benzyl-1H-indazol-3-yl)methoxy]-2-methyl-N′-phenylpropanohydrazide]
inhibition at 30 µM (MCP-1): 82%

melting point: 121 to 122 °C
SMILES: CC(C)(OCc1nn(Cc2ccccc2)c2ccccc12)C(=O)Nc1ccccn1 [Compound 14, 2-[(1-benzyl-1H-indazol-3-yl)methoxy]-2-methyl-N-pyrid-2-ylpropanamide]
inhibition at 30 µM (human MCP-1; [1]): 49%
inhibition at 30 µM (MCP-1): 70%
inhibition at 30 µM (human CX3CR1; [1]): 44%
inhibition at 30 µM (human p40; [1]): 27%

The remaining lines, values behind:

SMILES: CC(C)(OCc1nn(Cc2ccccc2)c2ccccc12)C(=O)NNC(N)=O [Compound 12, 2-{2-[(1-benzyl-1H-indazol-3-yl)methoxy]-2-methylpropanoyl}hydrazinecarboxamide]
inhibition at 300 µM (human MCP-1): 20%
inhibition at 300 µM (MCP-1): 48%
inhibition at 300 µM (human CX3CR1): 83%

SMILES: CN(C)CCNC(=O)C(C)(C)OCc1nn(Cc2ccccc2)c2ccccc12.Cl [Compound 13, 2-[(1-benzyl-1H-indazol-3-yl)methoxy]-N-[2-(dimethylamino)ethyl]-2-methylpropanamide hydrochloride]
inhibition at 75 µM (human MCP-1): 72%
inhibition at 75 µM (MCP-1): 74%
melting point: 136 to 137 °C
inhibition at 75 µM (human CX3CR1): 100%
inhibition at 75 µM (human p40): 59%

SMILES: CN1CCN(C(=O)C(C)(C)OCc2nn(Cc3ccccc3)c3ccccc23)CC1 [Compound 15, 1-benzyl-3-{[1,1-dimethyl-2-(4-methylpiperazin-1-yl)-2-oxoethoxy]methyl}-1H-indazole]
inhibition at 75 µM (human MCP-1): 40%
inhibition at 75 µM (MCP-1): 59%
melting point: 97 to 98 °C
inhibition at 75 µM (human CX3CR1): 89%
inhibition at 75 µM (human p40): 33%
